Assay results: patent US8686043B2, “Heterocyclic sulfonamides, uses and pharmaceutical compositions thereof” (Pfizer Inc., priority 2009, dated 2014)

Tested on: AMPA receptors
Experiment: AMPA ES Cell FLIPR Screen (AMPA Potentiator Assay)
Type: cell-based, murine
Settings: ES cell-derived neurons, FLIPR (Fluo-4), 32 μM AMPA challenge; values marked * are the geometric mean of 2-5 EC50 determinations
Description: Growth and Maintenance of ES Cells
Murine ES cell line E14, with a targeted mutation in the Sox1 gene and a neuroectodermal marker that offers G418 resistance when the Sox1 gene is expressed (Stem Cell Sciences, West Mains Road, Edinburgh, Scotland EH9 3JQ) may be used in all experiments. ES cells may be maintained undifferentiated as previously described (Methods For The Isolation And Maintenance Of Murine Embryonic Stem Cells; Roach-M-L, McNeish-J-D., Methods in Molecular Biology, 185, 1-16 (2002)). Briefly, ES cells may be grown in stem cell culture media comprising a base medium of Knockout™ D-MEM (Invitrogen 5791 Van Allen Way, Carlsbad, Calif. USA 92008), supplemented with 15% ES qualified Fetal Bovine Serum (FBS) (Invitrogen), 0.2 mM L-Glutamine (Invitrogen), 0.1 mM MEM non-essential amino acids (Invitrogen), 30 μg/ml Gentamicin […] (Invitrogen), 1000 U/ml ESGRO™ (CHEMICON International, Inc., 28820 Single Oak Drive, Temecula, Calif. 92590) and 0.1 mM 2-mercaptoethanol (Sigma, 3050 Spruce St., St. Louis, Mo. 63103). ES cells may then be plated on gelatin-coated dishes (BD Biosciences, 2350 Qume Drive, San Jose, Calif. 95131), wherein the media is changed daily and the cells dissociated with 0.05% Trypsin EDTA (Invitrogen) every other day.
Neural In Vitro Differentiation of ES Cells
Embryoid Body Formation: Prior to embryoid body (EB) formation the ES cells may be weaned from FBS onto Knockout Serum Replacement™ (KSR) (Invitrogen). To form EBs, ES cells may be dissociated into a single cell suspension, then 3×10^6 cells plated in bacteriology dishes (Nunc 4014) and grown as a suspension culture in NeuroEB-I medium that consisted of Knockout™ D-MEM (Invitrogen), supplemented with 10% KSR (Invitrogen), 0.2 mM L-Glutamine (Invitrogen), 0.1 mM MEM non-essential amino acids (Invitrogen), 30 μg/ml Gentamicin (Invitrogen), 1000 U/ml ESGRO™ (CHEMICON International, Inc.), 0.1 mM 2-mercaptoethanol (Sigma) and 150 ng/ml Transferrin (Invitrogen). The plates may then be put on a Stovall Belly Button™ shaker in an atmospheric oxygen incubator. The media may be changed on day 2 of EB formation with NeuroEB-I and on day 4 with NeuroEB-II (NeuroEB-I plus 1 μg/ml mNoggin (R&D Systems, 614 McKinley Place N.E. Minneapolis, Minn. 55413)
Neuronal Precursor Selection and Expansion: On day 5 of EB formation, EBs may be dissociated with 0.05% Trypsin EDTA, and 4×10^6 cells/100 mm dish may then be plated on Laminin coated tissue culture dishes in NeuroEB-II-G418 medium that consisted of a base medium of a 1:1 mixture of D-MEM/F12 supplemented with N2 supplements and NeuroBasal Medium supplemented with B27(I ASSUME THIS IS THE VITAMIN) supplement and 0.1 mM L-Glutamine (all from Invitrogen). The base medium may then be supplemented with 10 ng/ml bFGF (Invitrogen), 1 μg/ml mNoggin, 500 ng/ml SHH-N (IS THIS SONIC HEDGEHOG FROM ProSpecBio Rehovot Science Park, P.O. BOX 398, Rehovot 76103, Israel), 100 ng/ml FGF-8b (R&D Systems), 1 μg/ml Laminin and 200 μg/ml G418 (Invitrogen) for selection of neuronal precursors expressing Sox-1. The plates may then be put in an incubator containing 2% oxygen and maintained in these conditions. During the 6-day selection period, the NeuroEB-II ([…]) media should be changed daily. On day 6, the surviving neuronal precursor foci may then be dissociated with 0.05% Trypsin EDTA and the cells plated at a density of 1.5×10^6 cells/100 mm Laminin coated dish in Neuroll ([…])-G418 medium. The cells may then be dissociated every other day for expansion, and prepared for cryopreservation at passage 3 or 4. The cryopreservation medium typically contains 50% KSR, 10% dimethyl sulfoxide (DMSO) (Sigma) and 40% Neurol([…])-G418 medium. Neuronal precursors may be cryopreserved at a concentration of 4×10^6 cells/ml and 1 ml/cryovial in a controlled rate freezer overnight then transferred to an ultra-low freezer or liquid nitrogen for long-term storage. […]

Compound | EC50
CC(=O)NC1CCN(c2ccc(O[C@@H]3COC[C@H]3NS(=O)(=O)C(C)C)cc2)C1 (mixture of isomers) [Example 1, N-{1-[4-trans-({4-[(isopropylsulfonyl)amino]tetrahydrofuran-3-yl}oxy)phenyl]pyrrolidin-3-yl}acetamide] | 3330 nM
CCOc1ccccc1-c1ccc(O[C@@H]2COC[C@H]2NS(=O)(=O)C(C)C)cc1 (racemic) [Example 8, trans-N-{4-[(2′-ethoxybiphenyl-4-yl)oxy]tetrahydrofuran-3-yl}propane-2-sulfonamide.] | 2910 nM
CC(C)S(=O)(=O)N[C@H]1COC[C@H]1Oc1ccc(-c2ccc(C#N)s2)nc1 (racemic) [Example 23, cis-N-[4-{[6-(5-cyano-2-thienyl)pyridin-3-yl]oxy}tetra hydrofuran-3-yl]propane-2-sulfonamide] | 2580 nM
CC(C)S(=O)(=O)N[C@H]1COC[C@H]1Oc1ccc(-c2ccc(N(C)C)nc2)cc1 (racemic) [Example 43, cis-N-[4-{4-[6-(dimethyl-amino)-pyridin-3-yl]phenoxy}-tetrahydrofuran-3-yl]propane-2-sulfonamide] | 4480 nM
CC(C)S(=O)(=O)N[C@H]1COC[C@H]1Oc1ccc(-c2ccccc2C(F)(F)F)cc1 (racemic) [Example 44, cis-N-[4-{[2′-(trifluoro-methyl)-biphenyl-4-yl]oxy}-tetrahydrofuran-3-yl]propane-2-sulfonamide] | 2700 nM
Cc1ccc(-c2ccc(O[C@@H]3COC[C@@H]3NS(=O)(=O)C(C)C)cc2)cc1 (racemic) [Example 45, cis-N-{4-[(4′-methylbiphenyl-4-yl)oxy]-tetrahydrofuran-3-yl}propane-2-sulfonamide] | 2550 nM
CC(C)S(=O)(=O)N[C@H]1COC[C@H]1Oc1ccc(-c2cccc(C(F)(F)F)c2)cc1 (racemic) [Example 47, cis-N-[4-{[3′-(trifluoromethyl)biphenyl-4-yl]oxy}tetrahydrofuran-3-yl]propane-2-sulfonamide] | 3820 nM
CC(C)S(=O)(=O)N[C@H]1COC[C@H]1Oc1ccc(-c2ccncc2)cc1 (racemic) [Example 48, cis-N-[4-(4-pyridin-4-ylphenoxy)tetrahydrofuran-3-yl]propane-2-sulfonamide] | 626 nM
CC(C)S(=O)(=O)N[C@H]1COC[C@H]1Oc1ccc(-c2cccc3ncccc23)cc1 (racemic) [Example 50, cis-N-[4-(4-quinolin-5-ylphenoxy)tetrahydrofuran-3-yl]propane-2-sulfonamide] | 452 nM
CC(C)S(=O)(=O)N[C@H]1COC[C@H]1Oc1ccc(-c2cccc3cnccc23)cc1 (racemic) [Example 52, cis-N-[4-(4-isoquinolin-5-ylphenoxy)tetrahydrofuran-3-yl]propane-2-sulfonamide] | 1250 nM
CC(C)S(=O)(=O)N[C@@H]1COC[C@@H]1Oc1ccc(-c2ccc(C#N)cc2)cc1 (relative stereo) [Example 9, cis-N-{4-[(4′-cyanobiphenyl-4-yl)oxy]tetra hydrofuran-3-yl}propane-2-sulfonamide] | 6150 nM
CC(C)S(=O)(=O)N[C@@H]1COC[C@@H]1Oc1ccc(-c2cccnc2)cc1 (relative stereo) [Example 10, cis-N-[4-(4-pyridin-3-ylphenoxy)tetrahydrofuran-3-yl]propane-2-sulfonamide] | 1160 nM
CC(C)S(=O)(=O)N[C@@H]1COC[C@@H]1Oc1ccc(-c2cccs2)cc1 (relative stereo) [Example 11, cis-N-{4-[4-(2-thienyl)phenoxy]tetrahydrofuran-3-yl}propane-2-sulfonamide] | 689 nM
CC(C)S(=O)(=O)N[C@@H]1COC[C@@H]1Oc1ccc(-c2ccc(F)nc2)cc1 (relative stereo) [Example 12, cis-N-{4-[4-(6-fluoropyridin-3-yl)phenoxy]tetrahydrofuran-3-yl}propane-2-sulfonamide] | 1100 nM
